Test results published in ChEMBL document CHEMBL1201862, “PubChem BioAssay data set” (2004).
Active and inactive are the calls of the source.

Assays:
[1] = target: Cytochrome P450 3A4 (Homo sapiens, UniProt P08684);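 also: CYP3A4 tested as one member of a cytochrome P450 panel screen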
[2] = target: T1, Ubiquitin-conjugating enzyme E2 N (Homo sapiens, UniProt P61088); type: functional
T1 sequence (P61088 whole entry): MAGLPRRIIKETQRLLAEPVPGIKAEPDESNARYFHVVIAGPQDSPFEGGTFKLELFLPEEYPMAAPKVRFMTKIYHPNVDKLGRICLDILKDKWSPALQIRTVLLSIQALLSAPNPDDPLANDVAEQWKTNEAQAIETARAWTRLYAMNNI

[3] = target: T1, Ubiquitin-conjugating enzyme E2 N; type: functional; remark: listed apart in the source
[4] = target: T2, Bcl-2-related protein A1 (Mus musculus, UniProt Q07440); type: functional;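 also: confirmatory dose–response counterscreen on Bfl-1, used to check hits from a UBC13 polyubiquitin inhibitor campaign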
T2 sequence (Q07440 whole entry): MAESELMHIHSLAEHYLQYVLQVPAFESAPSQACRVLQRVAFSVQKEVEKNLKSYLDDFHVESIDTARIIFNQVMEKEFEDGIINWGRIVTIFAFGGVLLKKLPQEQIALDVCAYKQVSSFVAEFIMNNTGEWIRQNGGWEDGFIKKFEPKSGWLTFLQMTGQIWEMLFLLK

[5] = target: T3, Microphthalmia-associated transcription factor (Homo sapiens, UniProt O75030); assay: reducers of TRPM1 reporter luminescence, concentration series – cell-based, SK-MEL-5, cherry-picked, set 3, MITF inhibitor project, dose response (AID 493073); type: functional;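 also: SK-MEL-5 melanoma cells with luciferase driven by the MITF target TRPM1 promoter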
T3 sequence (O75030 whole entry): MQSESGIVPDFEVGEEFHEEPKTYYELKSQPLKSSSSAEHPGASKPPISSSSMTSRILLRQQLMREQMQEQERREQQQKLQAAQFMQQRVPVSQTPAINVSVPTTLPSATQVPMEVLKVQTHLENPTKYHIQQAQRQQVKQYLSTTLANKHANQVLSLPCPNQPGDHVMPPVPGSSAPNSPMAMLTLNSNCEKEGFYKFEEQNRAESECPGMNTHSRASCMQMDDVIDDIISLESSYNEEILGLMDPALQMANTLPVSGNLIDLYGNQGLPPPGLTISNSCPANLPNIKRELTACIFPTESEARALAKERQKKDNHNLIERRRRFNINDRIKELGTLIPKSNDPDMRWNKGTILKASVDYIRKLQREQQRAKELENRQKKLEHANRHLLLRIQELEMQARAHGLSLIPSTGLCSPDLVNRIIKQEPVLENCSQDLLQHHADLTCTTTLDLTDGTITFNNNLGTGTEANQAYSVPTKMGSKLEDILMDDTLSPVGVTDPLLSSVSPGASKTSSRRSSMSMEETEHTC

[6] = target: T4, SUMO-activating enzyme (Homo sapiens, UniProt Q9UBT2); assay: blockers of UBC9-mediated SUMO conjugation – biochemical, AlphaScreen, SUMOylation inhibitor project, confirmation (AID 2018); type: functional
T4 sequence (Q9UBE0 whole entry): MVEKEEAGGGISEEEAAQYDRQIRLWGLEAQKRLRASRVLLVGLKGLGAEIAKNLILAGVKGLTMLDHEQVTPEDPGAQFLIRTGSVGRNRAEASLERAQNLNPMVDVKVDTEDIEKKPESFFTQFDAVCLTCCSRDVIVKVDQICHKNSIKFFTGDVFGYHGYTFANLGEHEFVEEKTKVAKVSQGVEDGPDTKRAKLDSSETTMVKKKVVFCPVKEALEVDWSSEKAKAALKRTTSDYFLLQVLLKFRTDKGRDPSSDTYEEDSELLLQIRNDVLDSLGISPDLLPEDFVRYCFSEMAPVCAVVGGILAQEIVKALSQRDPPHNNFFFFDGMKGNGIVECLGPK
T4 sequence (Q9UBT2 whole entry): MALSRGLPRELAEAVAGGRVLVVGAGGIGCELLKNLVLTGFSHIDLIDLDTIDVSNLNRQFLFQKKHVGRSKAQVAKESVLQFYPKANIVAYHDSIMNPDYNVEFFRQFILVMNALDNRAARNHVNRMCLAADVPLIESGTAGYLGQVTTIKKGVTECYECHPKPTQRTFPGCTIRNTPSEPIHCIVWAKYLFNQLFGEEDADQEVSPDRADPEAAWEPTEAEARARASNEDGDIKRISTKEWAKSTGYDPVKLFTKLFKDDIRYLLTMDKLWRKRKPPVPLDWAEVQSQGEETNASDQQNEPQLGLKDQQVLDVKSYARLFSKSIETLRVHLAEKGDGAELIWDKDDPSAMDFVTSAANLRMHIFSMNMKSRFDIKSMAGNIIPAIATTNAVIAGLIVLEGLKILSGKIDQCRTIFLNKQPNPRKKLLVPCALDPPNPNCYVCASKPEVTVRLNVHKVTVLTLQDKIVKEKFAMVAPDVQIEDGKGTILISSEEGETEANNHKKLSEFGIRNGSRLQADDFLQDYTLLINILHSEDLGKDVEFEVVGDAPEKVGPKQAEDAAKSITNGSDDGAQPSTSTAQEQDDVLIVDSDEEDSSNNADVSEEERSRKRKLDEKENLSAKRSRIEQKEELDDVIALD

[7] = target: T4, SUMO-activating enzyme; assay: blockers of SAE1/SAE2–UBC9 SUMO transfer – biochemical, HTRF, uHTS, primary screen (AID 2006); type: protein-complex assay
[8] = target: T5, Calpain-2 catalytic subunit (Sus scrofa, UniProt P43367); assay: m-calpain protease blockers, concentration series – biochemical, fluorogenic peptide substrate, dose response (AID 1420); type: functional
T5 sequence (P43367 whole entry): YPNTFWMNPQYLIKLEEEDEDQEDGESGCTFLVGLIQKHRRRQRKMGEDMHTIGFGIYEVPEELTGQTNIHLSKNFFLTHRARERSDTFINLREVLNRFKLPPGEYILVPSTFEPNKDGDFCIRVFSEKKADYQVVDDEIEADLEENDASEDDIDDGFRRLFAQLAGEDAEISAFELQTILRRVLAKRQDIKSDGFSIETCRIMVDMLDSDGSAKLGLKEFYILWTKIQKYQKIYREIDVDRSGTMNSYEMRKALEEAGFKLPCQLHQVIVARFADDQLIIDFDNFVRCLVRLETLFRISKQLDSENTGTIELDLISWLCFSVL

[9] = target: T6, Endoribonuclease toxin MazF (Escherichia coli K-12, UniProt P0AE70); assay: substrate-only fluorescence increase artefacts – biochemical, single-stranded RNase substrate, counter-screen for MazEF activator project, dose response (AID 588502); type: functional
T6 sequence (P0AE70 whole entry): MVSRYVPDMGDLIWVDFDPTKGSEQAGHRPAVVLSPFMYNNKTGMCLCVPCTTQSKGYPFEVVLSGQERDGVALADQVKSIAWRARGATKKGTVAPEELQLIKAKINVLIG

[10] = target: T6, Endoribonuclease toxin MazF; assay: activation of MazEF endoribonuclease cleavage – biochemical, fluorescence, single-stranded RNA substrate, uHTS hits, dose response (AID 588481); type: functional
[11] = target: T7, High affinity choline transporter 1 (Homo sapiens, UniProt Q9GZV3); assay: human choline transporter blockers, potency – cell-based, 5-point CRC, membrane potential dye, dose response (AID 504840); type: functional
T7 sequence (Q9GZV3 whole entry): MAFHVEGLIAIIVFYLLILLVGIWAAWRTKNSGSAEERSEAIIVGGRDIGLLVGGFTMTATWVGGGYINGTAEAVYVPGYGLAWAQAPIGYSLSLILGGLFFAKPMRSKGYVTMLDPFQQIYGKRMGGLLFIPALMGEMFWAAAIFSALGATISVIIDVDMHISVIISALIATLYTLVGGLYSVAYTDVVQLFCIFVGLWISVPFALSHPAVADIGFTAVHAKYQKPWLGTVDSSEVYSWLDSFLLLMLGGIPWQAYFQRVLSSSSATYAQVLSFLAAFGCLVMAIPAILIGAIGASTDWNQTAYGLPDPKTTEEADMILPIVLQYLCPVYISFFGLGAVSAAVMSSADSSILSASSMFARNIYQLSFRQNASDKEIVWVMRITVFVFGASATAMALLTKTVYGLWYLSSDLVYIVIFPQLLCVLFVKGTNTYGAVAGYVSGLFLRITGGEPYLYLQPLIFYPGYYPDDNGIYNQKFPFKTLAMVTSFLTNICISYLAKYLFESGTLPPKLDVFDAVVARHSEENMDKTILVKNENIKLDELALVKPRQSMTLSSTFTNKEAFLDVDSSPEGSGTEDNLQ

[12] = target: Induced myeloid leukemia cell differentiation protein Mcl-1 (Homo sapiens, UniProt Q07820); type: functional
Sequence of Induced myeloid leukemia cell differentiation protein Mcl-1 (Q07820 whole entry): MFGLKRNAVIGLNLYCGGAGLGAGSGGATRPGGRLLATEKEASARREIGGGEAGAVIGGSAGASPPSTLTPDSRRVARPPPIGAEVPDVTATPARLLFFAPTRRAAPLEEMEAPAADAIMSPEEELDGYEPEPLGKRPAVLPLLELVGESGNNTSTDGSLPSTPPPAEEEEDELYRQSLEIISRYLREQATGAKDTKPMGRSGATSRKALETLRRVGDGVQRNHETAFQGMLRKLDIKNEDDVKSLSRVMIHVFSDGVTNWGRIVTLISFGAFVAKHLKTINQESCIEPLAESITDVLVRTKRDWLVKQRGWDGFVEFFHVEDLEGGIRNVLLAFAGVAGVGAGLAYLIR

[13] = target: T8, Aminopeptidase N (Plasmodium falciparum FcB1/Columbia, UniProt O96935); assay: malaria alanyl aminopeptidase activity blockers – biochemical, fluorogenic H-Leu-NHMec substrate, 1536-well (AID 1445); set-up: species or system Plasmodium falciparum 3D7, 3D7
T8 sequence (O96935 whole entry): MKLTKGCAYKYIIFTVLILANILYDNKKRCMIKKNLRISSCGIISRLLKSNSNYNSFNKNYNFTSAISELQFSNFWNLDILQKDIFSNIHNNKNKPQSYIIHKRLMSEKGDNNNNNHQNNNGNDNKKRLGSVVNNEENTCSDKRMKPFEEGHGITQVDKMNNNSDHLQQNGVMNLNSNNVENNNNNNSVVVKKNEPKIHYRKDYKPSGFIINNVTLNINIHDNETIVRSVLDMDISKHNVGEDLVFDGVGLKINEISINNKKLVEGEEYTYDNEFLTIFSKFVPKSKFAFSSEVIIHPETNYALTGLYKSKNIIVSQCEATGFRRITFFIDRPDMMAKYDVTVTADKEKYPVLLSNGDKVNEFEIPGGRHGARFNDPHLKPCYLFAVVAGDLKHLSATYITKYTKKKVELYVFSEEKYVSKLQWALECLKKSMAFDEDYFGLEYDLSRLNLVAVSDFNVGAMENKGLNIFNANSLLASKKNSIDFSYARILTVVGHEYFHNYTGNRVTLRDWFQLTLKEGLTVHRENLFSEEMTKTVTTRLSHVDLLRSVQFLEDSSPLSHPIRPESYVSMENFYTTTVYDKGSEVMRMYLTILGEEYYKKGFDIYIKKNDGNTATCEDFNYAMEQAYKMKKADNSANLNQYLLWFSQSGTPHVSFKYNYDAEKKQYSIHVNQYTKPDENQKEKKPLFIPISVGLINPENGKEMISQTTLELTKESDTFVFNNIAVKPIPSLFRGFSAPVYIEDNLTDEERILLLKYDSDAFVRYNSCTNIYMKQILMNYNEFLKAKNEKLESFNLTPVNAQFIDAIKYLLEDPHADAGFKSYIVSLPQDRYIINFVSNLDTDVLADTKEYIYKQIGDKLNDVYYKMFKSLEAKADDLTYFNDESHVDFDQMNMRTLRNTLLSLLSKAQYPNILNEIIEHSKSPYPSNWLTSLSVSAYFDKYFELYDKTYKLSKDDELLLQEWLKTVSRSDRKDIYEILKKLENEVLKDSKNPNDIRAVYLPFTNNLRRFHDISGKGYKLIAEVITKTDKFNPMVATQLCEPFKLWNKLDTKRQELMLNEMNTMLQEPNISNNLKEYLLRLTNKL

[14] = target: Cytochrome P450 2C9 (Homo sapiens, UniProt P11712)
Sequence of Cytochrome P450 2C9 (P11712 whole entry): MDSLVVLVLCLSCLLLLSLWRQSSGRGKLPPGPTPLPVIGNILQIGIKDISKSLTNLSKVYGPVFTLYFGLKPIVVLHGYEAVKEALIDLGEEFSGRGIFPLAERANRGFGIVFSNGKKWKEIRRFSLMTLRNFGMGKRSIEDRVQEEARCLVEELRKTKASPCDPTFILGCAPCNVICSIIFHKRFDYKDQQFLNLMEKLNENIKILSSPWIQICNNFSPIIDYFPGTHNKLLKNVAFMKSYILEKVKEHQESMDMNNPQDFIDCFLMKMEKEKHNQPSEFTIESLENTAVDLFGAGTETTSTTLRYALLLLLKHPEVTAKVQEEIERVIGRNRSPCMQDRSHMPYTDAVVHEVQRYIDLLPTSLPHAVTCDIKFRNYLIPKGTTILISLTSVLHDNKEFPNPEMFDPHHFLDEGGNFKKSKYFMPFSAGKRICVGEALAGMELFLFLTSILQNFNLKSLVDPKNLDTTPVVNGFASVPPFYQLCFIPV

[15] = target: T9, Cytochrome P450 1A2 (Homo sapiens, UniProt P05177);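 also: PubChem cytochrome P450 panel assay, CYP1A2 panel member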
T9 sequence (P05177 whole entry): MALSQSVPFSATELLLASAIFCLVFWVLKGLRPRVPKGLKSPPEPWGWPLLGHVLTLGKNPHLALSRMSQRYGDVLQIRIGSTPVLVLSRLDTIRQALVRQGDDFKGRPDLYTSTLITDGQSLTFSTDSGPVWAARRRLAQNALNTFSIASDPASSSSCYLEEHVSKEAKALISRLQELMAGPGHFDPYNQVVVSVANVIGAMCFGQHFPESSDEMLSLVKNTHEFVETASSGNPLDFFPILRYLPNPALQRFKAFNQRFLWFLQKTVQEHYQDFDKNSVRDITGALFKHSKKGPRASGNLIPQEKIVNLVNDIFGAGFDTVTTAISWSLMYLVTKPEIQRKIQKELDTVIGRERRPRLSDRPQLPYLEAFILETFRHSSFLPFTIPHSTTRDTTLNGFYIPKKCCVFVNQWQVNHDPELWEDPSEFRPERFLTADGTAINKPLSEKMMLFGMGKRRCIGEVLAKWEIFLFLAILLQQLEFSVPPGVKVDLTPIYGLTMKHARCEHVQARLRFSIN

[16] = target: Cytochrome P450 2C19 (Homo sapiens, UniProt P33261); assay: Cytochrome panel assay with activity outcomes. Panel member name: p450-cyp2c19 Compounds with AC50 equal or less than 10 uM are considered active; type: functional; conditions: read-out: AC50
Sequence of Cytochrome P450 2C19 (P33261 whole entry): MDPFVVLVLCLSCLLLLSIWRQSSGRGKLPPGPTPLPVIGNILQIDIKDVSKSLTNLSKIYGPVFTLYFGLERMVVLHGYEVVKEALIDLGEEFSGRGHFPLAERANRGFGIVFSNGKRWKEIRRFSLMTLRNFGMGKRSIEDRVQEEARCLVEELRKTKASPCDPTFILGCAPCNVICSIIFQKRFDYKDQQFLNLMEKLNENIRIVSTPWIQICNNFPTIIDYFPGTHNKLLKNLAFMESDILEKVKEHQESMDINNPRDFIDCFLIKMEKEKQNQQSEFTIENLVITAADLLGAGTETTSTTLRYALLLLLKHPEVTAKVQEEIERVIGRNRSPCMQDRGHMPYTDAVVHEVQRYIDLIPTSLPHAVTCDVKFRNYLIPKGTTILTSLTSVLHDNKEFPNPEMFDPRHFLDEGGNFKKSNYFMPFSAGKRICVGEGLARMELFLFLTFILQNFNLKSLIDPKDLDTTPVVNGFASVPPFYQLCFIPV

[17] = NIH-3T3 fibroblast cytotoxicity, dose response, cytotoxicity control, cell-based, fluorescence, Alamar Blue, secondary assay (AID 2327); type: functional;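 also: NIH-3T3 mouse fibroblasts cultured with fluconazole at 8 µg/mL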
[18] = Trypanosoma cruzi growth suppression in host cells – NIH3T3 host cells, beta-gal luminescence, confirmation (AID 2044); type: functional, cell-based;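 also: intracellular parasites grown in NIH/3T3 mouse fibroblasts as host cells; luminescent beta-galactosidase reporter signal from transgenic T. cruzi replicating inside host cells; inhibitors lower the luminescence signal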
[19] = system: INS1; assay: INS-1E survival protection against cytokine death – cell-based, luminescence, retest, dose response (AID 449756); type: functional; conditions: Rattus norvegicus;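 also: cell death triggered by IL-1 beta plus TNF-alpha plus IFN-gamma mixture; protective hits raise ATP signal compared with cytokine alone wells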
[20] = fluconazole-exposed Candida albicans growth modulators – fluorescence, retest, confirmation (AID 2467); type: functional, cell-based
[21] = NIH3T3 cell viability loss – ATP luminescence, mouse fibroblasts, counter-screen, dose response (AID 2010); type: functional, cell-based;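 also: cells exposed to compound for about 90 hours before reading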

Sequence of Cytochrome P450 3A4 (P08684 whole entry): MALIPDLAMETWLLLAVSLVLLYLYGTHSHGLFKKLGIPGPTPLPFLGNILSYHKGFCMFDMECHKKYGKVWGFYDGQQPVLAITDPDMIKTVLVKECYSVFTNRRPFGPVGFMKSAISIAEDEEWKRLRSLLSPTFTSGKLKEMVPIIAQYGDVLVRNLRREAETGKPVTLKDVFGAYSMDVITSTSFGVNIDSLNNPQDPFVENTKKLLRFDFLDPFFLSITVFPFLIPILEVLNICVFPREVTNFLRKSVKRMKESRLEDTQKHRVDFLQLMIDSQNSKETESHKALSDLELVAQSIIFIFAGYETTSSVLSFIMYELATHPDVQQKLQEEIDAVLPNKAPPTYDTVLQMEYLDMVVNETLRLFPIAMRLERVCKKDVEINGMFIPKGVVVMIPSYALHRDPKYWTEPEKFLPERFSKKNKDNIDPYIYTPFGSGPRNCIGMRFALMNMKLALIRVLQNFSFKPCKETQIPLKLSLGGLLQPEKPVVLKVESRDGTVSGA

## Cc1ccc(C(=O)N2CCN(c3ccc(C(F)(F)F)cn3)CC2)cc1
[1]
  AC50: inconclusive

## CC(C)CC(C(=O)NC(C)(C)C)N(CC1CCCO1)C(=O)c1snc(C(N)=O)c1N (stereo not drawn)
[2]
  IC50: 11.2 µM (active)
[3]
  IC50: 13.4 µM (active)
[4]
  IC50: > 20 µM (inactive)

## O=C(C[n+]1cccc2ccccc21)c1ccc([N+](=O)[O-])cc1
[5]
  AC50: 6.21 µM (active)

## O=C(Nc1ccc2oc(=O)ccc2c1)c1ccc(-c2cccc(Cl)c2)o1
[6]
  IC50: 15.8 µM (active)
[7]
  IC50: 6.77 µM (active)
[8]
  IC50: 11.6 µM (not active)

## Cc1cc(C(=O)N/N=C/c2ccc(-c3ccc([N+](=O)[O-])cc3C)o2)[nH]n1
[9]
  EC50: > 99 µM (inactive)
[10]
  EC50: > 99 µM (inactive)

## Cc1noc(NS(=O)(=O)c2ccc(NC(=O)COc3ccc(Cl)cc3Cl)cc2)c1C
[11]
  IC50: 1.08 µM (active)

## CCc1nnc(NS(=O)(=O)c2ccc(NC(=O)c3cc(Cl)ccc3Cl)cc2)s1
[11]
  IC50: 12.3 µM (active)

## O=C(C1=NN[C@@H]2C(=O)N(c3cccc(C(F)(F)F)c3)C(=O)[C@H]12)c1ccc2ccccc2n1
[9]
  EC50: > 99 µM (inactive)
[10]
  EC50: 47.9 µM (inactive)

## O=C1NC(=S)NC(=O)C1=NNc1ccc(-c2ccccc2)cc1[N+](=O)[O-]
[6]
  IC50: 4.11 µM (active)
[12]
  IC50: 4.83 µM (active)
[13]
  IC50: 10.5 µM (active)
[7]
  IC50: 22.4 µM (active)

## CC(=O)Nc1ccc(C(=O)CSc2cc(C)c3cccc(C)c3n2)cc1
[9]
  EC50: > 99 µM (inactive)
[10]
  EC50: > 99 µM (inactive)

## CCCCOC(=O)c1ccc(NC(=S)NC(=O)c2c(Cl)cnn2C)cc1
[1]
  AC50: inconclusive
[14]
  AC50: 39.8 µM (inconclusive)
[15]
  AC50: 39.8 µM (inconclusive)

## Cc1cccc2c1c(/N=N/C(=N)S)c(O)n2C1OC(CO)C(O)C(O)C1O (stereo not drawn)
[2]
  IC50: 4.56 µM (active)
[3]
  IC50: 10.7 µM (active)
[4]
  IC50: > 20 µM (inactive)

## O=C(Oc1ccccc1)N1CCC2(CC1)CN(C(c1ccccc1)c1ccccc1)C2
[1]
  AC50: inconclusive
[16]
  AC50: 31.6 µM (inconclusive)
[14]
  AC50: 39.8 µM (inconclusive)

## CCOc1ccccc1C(=O)NC(C)c1ccc2c(c1)OCO2 (stereo not drawn)
[11]
  IC50: 19.1 µM (active)

## C/C(=N\OCC(=O)Nc1ccccc1C(=O)O)c1cccs1
[11]
  IC50: 11 µM (active)

## CN(C(=O)COC(=O)c1ccc([N+](=O)[O-])cc1N)c1ccccc1
[9]
  EC50: > 99 µM (inactive)
[10]
  EC50: > 99 µM (inactive)

## COc1ccc(-c2cc(-c3ccccc3)[n+](C)c(-c3ccccc3)c2)cc1.[O-][Cl+3]([O-])([O-])[O-]
[17]
  EC50: > 160 µM (inactive)
[18]
  EC50: 131 nM (active)
[19]
  AC50: 2.85 µM (active)
[20]
  EC50: 570 nM (active)
[5]
  AC50: 3.2 µM (active)
[21]
  EC50: > 60 µM (not active)

## CNc1cc(-c2ccccc2C(F)(F)F)ncn1
[1]
  AC50: inconclusive

## Cc1ccccc1CNC(=O)CCCC(=O)n1nc(C)c2ccccc21
[2]
  IC50: 20 µM (active)
[3]
  IC50: 13.5 µM (active)
[4]
  IC50: > 20 µM (inactive)
